From PubChem BioAssay AID330 (DTP/NCI, 2004)
Where “and” joins values, the source holds several entries; their conditions need not be identical. Equal entries are not always repeated. Toxic doses and inconclusive results are not listed. Peptide text beside a SMILES is read from it. * marks the point of attachment. Boc = CC(C)(C)OC(=O)*; NHNH2 = NN*

System: P388 leukemia ip, CD2F1 mice, survival T/C
Assay: NCI In Vivo Anticancer Drug Screen. Data for tumor model P388 Leukemia (intraperitoneal) in CD2F1 (CDF1) mice
Settings: endpoint: median survival time, higher = longer survival
In short: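 Mice carrying the transplanted tumor received test compound or vehicle. Survival was recorded in each group, and the value is the treated-group measurement divided by that of the vehicle-treated control group.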

[1] = dose: 60.0 mg/kg/injection, schedule: Q01DX005 (ip), vehicle: saline with Tween-80
[2] = dose: 120.0 mg/kg/injection, schedule: Q01DX005 (ip), vehicle: saline with Tween-80
[3] = dose: 50.0 mg/kg/injection, schedule: Q01DX009 (ip), vehicle: Klucel (hydroxypropylcellulose) (HPC)
[4] = dose: 100.0 mg/kg/injection, schedule: Q01DX009 (ip), vehicle: Klucel (hydroxypropylcellulose) (HPC)
[5] = dose: 200.0 mg/kg/injection, schedule: Q01DX009 (ip), vehicle: Klucel (hydroxypropylcellulose) (HPC)
[6] = dose: 12.5 mg/kg/injection, schedule: Q01DX005 (ip), vehicle: saline with Tween-80
[7] = dose: 25.0 mg/kg/injection, schedule: Q01DX005 (ip), vehicle: saline with Tween-80
[8] = dose: 50.0 mg/kg/injection, schedule: Q01DX005 (ip), vehicle: saline with Tween-80
[9] = dose: 100.0 mg/kg/injection, schedule: Q01DX005 (ip), vehicle: saline with Tween-80
[10] = dose: 200.0 mg/kg/injection, schedule: Q01DX005 (ip), vehicle: saline with Tween-80
[11] = dose: 60.0 mg/kg/injection, schedule: Q01DX005 (ip), vehicle: saline
[12] = dose: 120.0 mg/kg/injection, schedule: Q01DX005 (ip), vehicle: saline
[13] = dose: 240.0 mg/kg/injection, schedule: Q01DX005 (ip), vehicle: saline
[14] = dose: 50.0 mg/kg/injection, schedule: Q01DX009 (ip), vehicle: saline
[15] = dose: 100.0 mg/kg/injection, schedule: Q01DX009 (ip), vehicle: saline
[16] = dose: 200.0 mg/kg/injection, schedule: Q01DX009 (ip), vehicle: saline

With `CC(=O)Nc1cc2c(=O)[nH]cnc2c([N+](=O)[O-])c1N(C)[N+](=O)[O-]` the T/C (dose: 5.0 mg/kg/injection, schedule: Q01DX005 (ip), vehicle: other) was 101 % of control, the T/C (dose: 10.0 mg/kg/injection, schedule: Q01DX005 (ip), vehicle: other) was 117 % of control and the T/C (dose: 20.0 mg/kg/injection, schedule: Q01DX005 (ip), vehicle: other) was 109 % of control. The T/C (dose: 40.0 mg/kg/injection, schedule: Q01DX005 (ip), vehicle: other) was 102 % of control.
For `CC1C2Cc3ccc(O)cc3C1(C)CCN2C` (stereo not drawn), the T/C [1] was 92 % of control and the T/C [2] was 100 % of control.
In the case of `O=C1CC(c2ccccc2)C(=O)N1CN1CCOCC1` (stereo not drawn), the T/C (dose: 50.0 mg/kg/injection, schedule: Q01DX005 (ip), vehicle: Klucel (hydroxypropylcellulose) (HPC)) is reported as 110 % of control, the T/C (dose: 100.0 mg/kg/injection, schedule: Q01DX005 (ip), vehicle: Klucel (hydroxypropylcellulose) (HPC)) is reported as 97 % of control and the T/C (dose: 200.0 mg/kg/injection, schedule: Q01DX005 (ip), vehicle: Klucel (hydroxypropylcellulose) (HPC)) is reported as 97 % of control.
In the case of `Cc1ccnc(NS(=O)(=O)c2ccc(N=Nc3c(O)n(-c4ccccc4)n(-c4ccccc4)c3=O)cc2)n1`, the T/C [3] is reported as 86 % of control, the T/C [4] is reported as 86 % of control and the T/C [5] is reported as 91 % of control.
With `CCCCCCCC(=O)C1C(=O)OC(C)(C)OC1=O` the T/C [1] was 100 % of control and the T/C [2] was 100 % of control.
For `NNC(=O)CCSC(=O)Nc1ccccc1`, the T/C [6] was 110 % of control, the T/C [7] was 106 % of control and the T/C [8] was 107 % of control and 112 % of control. For the same molecule, the T/C [9] was 114 % of control.
For `COC(=O)/C=C/NC(=O)c1ccccc1C(=O)OC`, the T/C (dose: 25.0 mg/kg/injection, schedule: Q01DX009 (ip), vehicle: suspension in saline) was 98 % of control, the T/C (dose: 50.0 mg/kg/injection, schedule: Q01DX009 (ip), vehicle: suspension in saline) was 100 % of control and the T/C (dose: 100.0 mg/kg/injection, schedule: Q01DX009 (ip), vehicle: suspension in saline) was 100 % of control. The T/C (dose: 200.0 mg/kg/injection, schedule: Q01DX009 (ip), vehicle: suspension in saline) was 100 % of control.
With `O=C1CS[C@@H]2C(=O)CCCC2C1` (stereo partly drawn) the T/C [8] was 98 % of control, the T/C [9] was 98 % of control and the T/C [10] was 92 % of control.
With `CCC(CCC(C)C1CCC2C3CC=C4CC(OC(=O)CCC(=O)O)CCC4(C)C3CCC12C)C(C)C` (stereo not drawn) the T/C (dose: 100.0 mg/kg/injection, schedule: Q04DX003 (ip), vehicle: saline with Tween-80) was 95 % of control, the T/C (dose: 200.0 mg/kg/injection, schedule: Q04DX003 (ip), vehicle: saline with Tween-80) was 87 % of control and the T/C (dose: 400.0 mg/kg/injection, schedule: Q04DX003 (ip), vehicle: saline with Tween-80) was 87 % of control.
In the case of `[O-][n+]1cccc2c3ccccc3ncc21`, the T/C (dose: 6.25 mg/kg/injection, schedule: Q04DX002 (ip), vehicle: saline with Tween-80) is reported as 94 % of control, the T/C (dose: 12.5 mg/kg/injection, schedule: Q04DX002 (ip), vehicle: saline with Tween-80) is reported as 108 % of control and the T/C (dose: 25.0 mg/kg/injection, schedule: Q04DX002 (ip), vehicle: saline with Tween-80) is reported as 100 % of control.
With `CS(=O)CC(=N\N)/C(CS(C)=O)=N/N` (stereo not drawn) the T/C [11] was 100 % of control, the T/C [12] was 95 % of control and the T/C [13] was 102 % of control.
`Nc1ccc(N2CCSCC2)nc1` was tested, and the T/C [14] was 104 % of control, the T/C [15] was 101 % of control and the T/C [16] was 96 % of control.
For `O=C1CCC(=O)N1SC(Cl)(Cl)Cl`, the T/C (dose: 6.25 mg/kg/injection, schedule: Q01DX005 (ip), vehicle: saline with Tween-80) was 109 % of control, the T/C [6] was 107 % of control and the T/C [7] was 100 % of control.
`COc1cc(N=Nc2ccccc2)cc(/C=N\NC(=S)Nc2ccc(C)cc2)c1O` was tested, and the T/C [8] was 94 % of control and the T/C [9] was 96 % of control.
With `Cc1ccc(C2(C(=O)C=[N+]=[N-])OC2(C)C)cc1` (stereo not drawn) the T/C [7] was 99 % of control, the T/C [8] was 99 % of control and the T/C [9] was 115 % of control. For the same molecule, the T/C [10] was 108 % of control.
For `O=CN1CCCc2cc(C(=O)O)ccc21`, the T/C (dose: 50.0 mg/kg/injection, schedule: Q01DX001 (ip), vehicle: saline sonified) was 100 % of control, the T/C (dose: 100.0 mg/kg/injection, schedule: Q01DX001 (ip), vehicle: saline sonified) was 100 % of control and the T/C (dose: 200.0 mg/kg/injection, schedule: Q01DX001 (ip), vehicle: saline sonified) was 105 % of control.
In the case of `COC(=O)C1=C(C(=O)OC)[C@@H]2CC[C@H]1[C@H]1[C@@H]2N=NN1c1ccccc1`, the T/C [8] is reported as 106 % of control, the T/C [9] is reported as 86 % of control and the T/C [10] is reported as 99 % of control.
For `S=C(N/N=C/c1ccc(Cl)cc1)Nc1ccccc1`, the T/C [4] was 101 % of control, the T/C [5] was 100 % of control and the T/C (dose: 400.0 mg/kg/injection, schedule: Q01DX009 (ip), vehicle: Klucel (hydroxypropylcellulose) (HPC)) was 93 % of control.
With `Oc1c[nH]c(=S)s1` the T/C (dose: 12.5 mg/kg/injection, schedule: Q01DX009 (ip), vehicle: other) was 112 % of control, the T/C (dose: 25.0 mg/kg/injection, schedule: Q01DX009 (ip), vehicle: other) was 106 % of control and the T/C (dose: 50.0 mg/kg/injection, schedule: Q01DX009 (ip), vehicle: other) was 111 % of control. The T/C (dose: 100.0 mg/kg/injection, schedule: Q01DX009 (ip), vehicle: other) was 102 % of control and the T/C (dose: 200.0 mg/kg/injection, schedule: Q01DX009 (ip), vehicle: other) was 117 % of control.
In the case of `COc1ccc(C(=O)N/N=C2\C(=O)c3c(C)cc(C)cc3CC2(C)C)cc1`, the T/C [14] is reported as 100 % of control, the T/C [15] is reported as 100 % of control and the T/C [16] is reported as 94 % of control.
In the case of `OC[CH2][Hg][Br]`, the T/C (dose: 0.37 mg/kg/injection, schedule: Q01DX009 (ip), vehicle: saline) is reported as 101 % of control, the T/C (dose: 0.75 mg/kg/injection, schedule: Q01DX009 (ip), vehicle: saline) is reported as 101 % of control and the T/C (dose: 1.5 mg/kg/injection, schedule: Q01DX009 (ip), vehicle: saline) is reported as 101 % of control. For the same molecule, the T/C (dose: 3.0 mg/kg/injection, schedule: Q01DX009 (ip), vehicle: saline) was 118 % of control and the T/C (dose: 6.0 mg/kg/injection, schedule: Q01DX009 (ip), vehicle: saline) was 104 % of control.
With `O=C(c1ccccc1)c1ccccc1-c1ccccc1C(=O)c1ccccc1` the T/C (dose: 50.0 mg/kg/injection, schedule: Q01DX009 (ip), vehicle: saline with Tween-80) was 102 % of control, the T/C (dose: 100.0 mg/kg/injection, schedule: Q01DX009 (ip), vehicle: saline with Tween-80) was 92 % of control and the T/C (dose: 200.0 mg/kg/injection, schedule: Q01DX009 (ip), vehicle: saline with Tween-80) was 87 % of control.
`Cn1c(-c2ccccc2Cl)cc(C=O)c1-c1ccccc1` was tested, and the T/C (dose: 100.0 mg/kg/injection, schedule: Q01DX001 (ip), vehicle: saline with Tween-80) was 99 % of control, the T/C (dose: 200.0 mg/kg/injection, schedule: Q01DX001 (ip), vehicle: saline with Tween-80) was 93 % of control and the T/C (dose: 400.0 mg/kg/injection, schedule: Q01DX001 (ip), vehicle: saline with Tween-80) was 93 % of control.
For `CSCCC(NC(=O)C(Cc1c[nH]c2ccccc12)NC(=O)OC(C)(C)C)C(=O)NN` (stereo not drawn) (Boc-Trp-Met-NHNH2; configuration not given here), the T/C [3] was 104 % of control and 105 % of control, the T/C [4] was 118 % of control and the T/C [5] was 119 % of control.
For `NC(Cc1ccc(OC2CCCC2)c(N(CCCl)CCCl)c1)C(=O)O` (stereo not drawn), the T/C (dose: 7.5 mg/kg/injection, schedule: Q04DX003 (ip), vehicle: saline) was 168 % of control, the T/C (dose: 15.0 mg/kg/injection, schedule: Q04DX003 (ip), vehicle: saline) was 168 % of control and the T/C (dose: 30.0 mg/kg/injection, schedule: Q04DX003 (ip), vehicle: saline) was 218 % of control.
`COC(=O)C1=NC(=S)N=C(C(=O)OC)C1(C)C(=O)c1ccccc1` was tested, and the T/C [11] was 95 % of control, the T/C [12] was 95 % of control and the T/C [13] was 118 % of control.
